# Reference: PMC5085761 (International Journal of Molecular Sciences, 2016)
# Molecular target: T1, human MRP4 (Homo sapiens, UniProt O15439)
# T1 construct: purchased GenoMembrane Co., Ltd. (Kanagawa, Japan); host or cells: Sf9
# T1 sequence (O15439 1-1325): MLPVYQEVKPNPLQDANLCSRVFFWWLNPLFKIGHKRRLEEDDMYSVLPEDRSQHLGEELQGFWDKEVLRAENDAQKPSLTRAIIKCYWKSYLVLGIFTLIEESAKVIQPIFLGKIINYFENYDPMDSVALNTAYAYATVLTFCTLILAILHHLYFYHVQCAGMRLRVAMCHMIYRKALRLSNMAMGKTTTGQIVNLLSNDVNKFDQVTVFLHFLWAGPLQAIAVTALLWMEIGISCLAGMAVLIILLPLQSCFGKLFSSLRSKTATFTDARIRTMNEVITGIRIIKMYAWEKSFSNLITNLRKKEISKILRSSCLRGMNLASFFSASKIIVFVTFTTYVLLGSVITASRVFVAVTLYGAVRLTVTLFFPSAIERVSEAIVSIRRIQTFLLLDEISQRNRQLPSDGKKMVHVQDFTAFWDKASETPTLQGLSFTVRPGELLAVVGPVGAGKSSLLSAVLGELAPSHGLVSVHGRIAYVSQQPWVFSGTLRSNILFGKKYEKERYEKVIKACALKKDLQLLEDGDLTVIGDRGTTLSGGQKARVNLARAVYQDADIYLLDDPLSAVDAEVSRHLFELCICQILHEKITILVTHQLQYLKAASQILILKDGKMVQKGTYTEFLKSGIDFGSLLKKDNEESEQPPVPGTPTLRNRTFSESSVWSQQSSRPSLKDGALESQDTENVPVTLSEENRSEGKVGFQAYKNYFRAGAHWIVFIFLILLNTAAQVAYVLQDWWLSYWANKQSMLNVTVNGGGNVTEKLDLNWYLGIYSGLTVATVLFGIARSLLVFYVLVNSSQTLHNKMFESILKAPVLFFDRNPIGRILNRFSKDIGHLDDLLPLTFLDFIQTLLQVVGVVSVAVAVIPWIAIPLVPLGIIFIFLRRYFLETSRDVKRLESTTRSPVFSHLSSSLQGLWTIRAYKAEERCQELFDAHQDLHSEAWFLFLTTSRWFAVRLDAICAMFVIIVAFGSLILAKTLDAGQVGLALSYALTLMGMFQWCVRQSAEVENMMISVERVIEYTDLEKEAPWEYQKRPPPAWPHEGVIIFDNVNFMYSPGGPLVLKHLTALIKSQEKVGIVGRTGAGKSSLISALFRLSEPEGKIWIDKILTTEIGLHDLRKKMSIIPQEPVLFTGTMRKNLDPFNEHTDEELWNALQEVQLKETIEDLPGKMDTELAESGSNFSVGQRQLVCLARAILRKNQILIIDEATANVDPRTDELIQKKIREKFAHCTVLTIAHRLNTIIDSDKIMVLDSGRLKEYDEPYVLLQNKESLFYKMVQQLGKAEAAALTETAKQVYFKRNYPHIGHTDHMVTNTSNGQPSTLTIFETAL
# Test: [14C]fluciclovine uptake by MRP4-expressing inside-out vesicles
# Assay type: in vitro ADME
# Procedure: For ABC transporters, experimental kits containing Sf9-derived vesicles with high expression levels of human P-gp, MRP4, BCRP, and each ABC transporter (including buffer, ATP/AMP solution, and glutathione) were purchased from GenoMembrane Co., Ltd. (Kanagawa, Japan).
# Vesicular transport assays were carried out according to the manufacturer’s protocol. […] The reaction was started by suspending 50 μg of vesicles (10 μL) in 40 μL of the reaction buffer. After incubation for an appropriate period of time, the reaction was stopped by the addition of ice-cold stop buffer (40 mM MOPS-Tris and 70 mM KCl; pH 7.0), after which the solution was filtered through a 0.45 μm HA filter (Millipore Corp., Billerica, MA, USA) using suction, and was washed twice in 5 mL of ice-cold stop buffer. The radioactivity of the filter was measured with a Tri-Carb 2910TR liquid scintillation counter (PerkinElmer) using Ultima Gold (PerkinElmer). The amount of tracer uptake was normalized to the membrane protein amount described in the product information sheets.
compound,measurement,value
"N[14C]1(C(=O)O)CC(F)C1 (stereo not drawn) [[^14C]fluciclovine, trans-1-amino-3-fluoro[1-^14C]cyclobutanecarboxylic acid]",uptake compared with control vesicles,no significant difference
